Data: patent US20260242388A1, “NBD1 MODULATORS AND METHODS OF USING THE SAME” (Sionna Therapeutics Inc., priority 2023, published 2026)

Legend:
[1] = system: NBD1; assay: Aggregation analysis using differential static light scattering (DSLS), thermal stability of NBD1; assay type: binding, Human; conditions: 100 μM compound; ΔTagg = Tagg minus average Tagg of DMSO control wells; NBD1 0.2 mg/ml
Procedure: Example 23. Aggregation Analysis Using Differential Static Light Scattering (DSLS)
Purified recombinant NBD1 was produced using previously described methods (A. Schmidt, J. L. Mendoza, P. J. Thomas (2011) Biochemical and Biophysical Approaches to Probe CFTR Structure (365-376) M. D. Amaral, K. Kunzelmann (eds.), Cystic Fibrosis, Methods in Molecular Biology 741, Springer Science+Business Media). The effect of test compounds on thermal stability of NBD1 was evaluated by differential static light scattering (DSLS) using the Harbinger Stargazer-384 instrument (Epiphyte Three, Toronto, Canada). Test compounds were dissolved and diluted to desired concentrations in 100% DMSO. The compounds or DMSO controls (100 nL) were stamped into wells of a […] low volume optical plate (Corning Inc., Corning, NY) using the Echo 555 acoustic liquid handler (Labcyte Inc., San Jose, CA).
NBD1 protein was diluted to 0.2 mg/ml in S200 buffer (50 mM Tris-HCl, 150 mM NaCl, 5 mM MgCl2, 2 mM ATP, 2 mM DTT, pH7.6) containing 1% glycerol. 10 μL of protein solution was aliquoted into the 384-well plate harboring the test compounds and 10 μL mineral oil was overlayed onto the protein solution, using the epMotion robotic liquid handler (Eppendorf North America, Hauppauge, NY). After placing into the Stargazer instrument, the plate was heated at 1° C. per minute to 70° C. Images were captured from 25° C. to 70° C. every 0.5° C. At the end of the experiment run, instrument software integrated image files and analyzed data automatically. A linear regression curve was generated for each well, representing the increase in light scattering over time. A temperature of aggregation (Tagg) was calculated based on the inflection point of the curve. To better compare data across experiments the average Tagg for DMSO control wells was calculated and subtracted from values for wells containing compounds to obtain a “ΔTagg” value. These ΔTagg values reflect stabilizing efficacy of the compounds.

[2] = target: T1, CFTR (Homo sapiens, UniProt P13569, DEL508-508); assay: TECC24 recording of CFTR-mediated transepithelial chloride transport in ΔF508 homozygous CF-HBE cells; assay type: cell-based; conditions: 48 hours incubation, AUC of forskolin-stimulated IEQ, test agent AUC divided by vehicle (DMSO) AUC, primary CF-HBE cells
T1 construct: Primary human bronchial epithelial cells from a ΔF508 homozygous CF donor; host or cells: primary CF-HBE cells, ΔF508 homozygous donor
Procedure: Example 24. TECC24 AUC Fold Over DMSO @10 μM
The effects of a test agent on CFTR-mediated transepithelial chloride transport was measured using TECC24 recording analysis. Test agents were solubilized in DMSO. Solubilized test agents were mixed with incubation medium containing DMEM/F12, Ultroser G (2%; Crescent Chemical, catalog #67042), Hyclone Fetal Clone 11 (2%; GE Healthcare, catalog #SH30066.02), bovine brain extract (0.25%; Lonza, catalog #CC-4098), insulin (2.5 μg/mL), IL-13 (10 ng/mL), hydrocortisone (20 nM), transferrin ([…]), triiodothyronine (500 nM), ethanolamine (250 nM), epinephrine (1.5 μM), phosphoethanolamine (250 nM), and retinoic acid (10 nM). Primary human bronchial epithelial cells from a ΔF508 homozygous CF donor (CF-HBE cells; from University of North Carolina Cystic Fibrosis Tissue Procurement Center), grown on Transwell HTS 24-well cell culture inserts (Costar, catalog #3378), were exposed to test agents or controls dissolved in incubation medium. The CF-HBE cells were cultured at 36.5° C. for 48 hours before TECC24 recordings were performed in the presence or absence of test agent, a positive control or vehicle (DMSO).
Following incubation, the transwell cell culture inserts containing the test agent or control-treated CF-HBE cells were loaded onto a TECC24 apparatus (TECC v7 or MTECC v2; EP Design) to record the transepithelial voltage (VT) and resistance (TEER) using 4 AgCl electrodes per well configured in current-clamp mode. The apical and basolateral bath solutions both contained (in mM) 140 NaCl, 5 KCl, 2 CaCl2), 1 MgCl2, 10 Hepes, and 10 glucose (adjusted to pH 7.4 with NaOH). To inhibit basal Na+ absorption, the ENaC inhibitor benzamil (10 μM) was added to the bath. Then, the adenylate cyclase activator, forskolin (10 μM), was added to the bath to activate CFTR. The forskolin-stimulated Cl− transport was halted by addition of CFTR inhibitor-172 (20 μM) to the bath at the end of the experiment to confirm specificity. VT and TEER recordings were digitally acquired at routine intervals using TECC or MTECC software (EP Design). VT and TEER were transformed into equivalent transepithelial Cl− current (IEQ), and the Area Under the Curve (AUC) of the IEQ time course between forskolin and CFTR inhibitor-172 addition is generated using Excel (Microsoft). Efficacy is expressed as the ratio of the test agent AUC divided by vehicle AUC. EC50s based on AUC are generated using the non-linear regression log(agonist) vs. response function in Prism software (Graphpad) with HillSlope fixed=1.
If a test agent increased the AUC of the forskolin-stimulated IEQ relative to vehicle in CF-HBE cells, and this increase was inhibited by CFTR inhibitor-172, then the test agent was considered a CFTR corrector.

T1 sequence (P13569 with tags, fused parts or gaps DEL508-508): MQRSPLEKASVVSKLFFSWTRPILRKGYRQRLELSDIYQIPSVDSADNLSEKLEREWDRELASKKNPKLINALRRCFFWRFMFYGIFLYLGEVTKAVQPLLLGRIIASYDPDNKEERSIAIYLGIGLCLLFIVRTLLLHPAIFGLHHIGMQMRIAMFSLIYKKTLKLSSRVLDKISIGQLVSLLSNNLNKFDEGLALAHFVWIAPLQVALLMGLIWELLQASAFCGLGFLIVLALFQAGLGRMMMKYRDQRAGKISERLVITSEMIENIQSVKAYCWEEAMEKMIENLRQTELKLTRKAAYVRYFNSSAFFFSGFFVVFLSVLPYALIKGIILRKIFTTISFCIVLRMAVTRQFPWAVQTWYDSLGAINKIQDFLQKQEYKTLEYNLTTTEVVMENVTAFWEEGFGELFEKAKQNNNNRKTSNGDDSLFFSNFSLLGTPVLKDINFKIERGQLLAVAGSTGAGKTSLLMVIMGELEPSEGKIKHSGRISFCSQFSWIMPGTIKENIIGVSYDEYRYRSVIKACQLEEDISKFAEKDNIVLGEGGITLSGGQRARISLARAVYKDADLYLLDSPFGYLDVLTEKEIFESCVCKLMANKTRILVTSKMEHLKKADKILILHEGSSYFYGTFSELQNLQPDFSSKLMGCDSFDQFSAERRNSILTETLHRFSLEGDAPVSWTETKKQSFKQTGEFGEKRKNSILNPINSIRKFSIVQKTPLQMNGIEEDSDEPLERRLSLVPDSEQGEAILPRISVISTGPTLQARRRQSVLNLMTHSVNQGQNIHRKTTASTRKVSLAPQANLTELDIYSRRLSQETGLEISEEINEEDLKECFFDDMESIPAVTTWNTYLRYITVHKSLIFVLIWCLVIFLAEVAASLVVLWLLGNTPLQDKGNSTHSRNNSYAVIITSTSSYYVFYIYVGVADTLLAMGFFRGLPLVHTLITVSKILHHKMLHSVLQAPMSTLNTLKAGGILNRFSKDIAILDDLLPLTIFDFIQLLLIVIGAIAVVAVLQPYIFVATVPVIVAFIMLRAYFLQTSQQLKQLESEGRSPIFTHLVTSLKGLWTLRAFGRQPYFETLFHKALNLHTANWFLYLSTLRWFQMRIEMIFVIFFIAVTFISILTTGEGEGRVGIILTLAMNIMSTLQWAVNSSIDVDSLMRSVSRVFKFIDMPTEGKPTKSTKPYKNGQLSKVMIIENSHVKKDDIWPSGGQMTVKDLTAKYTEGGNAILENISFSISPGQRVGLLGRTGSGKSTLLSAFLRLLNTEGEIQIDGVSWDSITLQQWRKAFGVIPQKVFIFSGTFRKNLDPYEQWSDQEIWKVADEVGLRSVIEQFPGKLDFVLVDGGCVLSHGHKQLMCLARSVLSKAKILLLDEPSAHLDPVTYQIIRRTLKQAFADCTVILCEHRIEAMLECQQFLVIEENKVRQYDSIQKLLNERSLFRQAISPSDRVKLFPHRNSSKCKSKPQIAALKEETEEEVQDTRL

SMILES | DSLS NBD1/3D Human Stability delta-T (° C.) @ 100 (μM) [1] | TECC24 @ 10 uM over DMSO [2]
CC(Cc1cccc(C2c3nc(-c4cc(Oc5c(F)cc6[nH]ccc6c5F)ccc4F)[nH]c3CCN2C)c1F)C(=O)O (stereo not drawn) [Example 11, 3-[3-[2-[5-[(4,6-difluoro-1H-indol-5-yl)oxy]-2-fluoro-phenyl]-5-methyl-1,4,6,7-tetrahydroimidazo[4,5-c]pyridin-4-yl]-2-fluoro-phenyl]-2-methyl-propanoic acid] | A (T ≥ 8° C.) | C (AUC @10 uM <= 4)
O=C(O)CCc1cccc([C@H]2NCCc3nc(-c4cc(Oc5c(F)cc6[nH]ccc6c5F)ccc4F)[nH]c32)c1F (single isomer, unassigned) [Example 3] | A (T ≥ 8° C.) | A (AUC @10 uM >=12)
Cc1c(-c2cc(Oc3c(F)cc4[nH]ccc4c3S(C)(=O)=O)ccc2F)nc2n1CCNC2c1cccc(CC(C)C(=O)O)c1F (stereo not drawn) [Example 8, 3-[2-fluoro-3-[2-[2-fluoro-5-[(6-fluoro-4-methylsulfonyl-1H-indol-5-yl)oxy]phenyl]-3-methyl-5,6,7,8-tetrahydroimidazo[1,2-a]pyrazin-8-yl]phenyl]-2-methyl-propanoic acid] | A (T ≥ 8° C.) | C (AUC @10 uM <= 4)
CS(=O)(=O)c1c(Oc2ccc(F)c(-c3nc4c([nH]3)C(c3cccc(CCC(=O)O)c3F)NCCC4)c2)c(F)cc2[nH]ccc12 (stereo not drawn) [Example 22, 3-[2-fluoro-3-[2-[2-fluoro-5-[(6-fluoro-4-methylsulfonyl-1H-indol-5-yl)oxy]phenyl]-3,4,5,6,7,8-hexahydroimidazo[4,5-c]azepin-4-yl]phenyl]propanoic acid] | A (T ≥ 8° C.) | C (AUC @10 uM <= 4)
O=C(O)Cc1cccc(C2OCCc3cn(-c4cc(Oc5c(F)cc6[nH]ccc6c5F)ccc4F)nc32)c1F (stereo not drawn) [Example 1, 2-(3-(2-(5-((4,6-difluoro-1H-indol-5-yl)oxy)-2-fluorophenyl)-2,4,5,7-tetrahydropyrano[3,4-c]pyrazol-7-yl)-2-fluorophenyl)acetic acid] | B (4-8° C.) | C (AUC @10 uM <= 4)
O=C(O)CCc1cccc(C2c3nc(-c4cc(Oc5c(F)cc6[nH]ccc6c5F)ccc4F)[nH]c3CCN2CC(F)F)c1F (stereo not drawn) [Example 12, 3-[3-[5-(2,2-difluoroethyl)-2-[5-[(4,6-difluoro-1H-indol-5-yl)oxy]-2-fluoro-phenyl]-1,4,6,7-tetrahydroimidazo[4,5-c]pyridin-4-yl]-2-fluoro-phenyl]propanoic acid] | A (T ≥ 8° C.) | B (AUC @10 uM between 4-12)
